# Earlier results as cited in patent US20080166423A1, “Combination Medication for Treating the Effects of Stomach Acid Reduction Medication on Bone Integrity” (priority 2007, published 2008).
# Conditions: per day
smiles,measurement,value
CC(=O)Nc1ccc(O)cc1 [Acetaminophen],daily dosage with known liver toxicity,> 4000 mg
